Laboratory results as given in ChEMBL document CHEMBL6127128, “Discovery of the First-in-Class Dual-Target ROCK/HDAC Inhibitor with Potent Antitumor Efficacy in Vivo That Trigger Antitumor Immunity” (J Med Chem, 2024).

Experiment: AUC (0 to infinity) in Balb/c mouse at 1 mg/kg, iv measured for 24 hrs by LC-MS/MS analysis
Type: ADME, organism-based
Conditions: in vivo

Question: With `O=C(CCCCCCNC(=O)c1cc2cc(-c3cn[nH]c3)ccc2s1)NO` as the compound, how does the AUC(0-inf) read?
Answer: 89.3 ng·h/mL
